Laboratory results published in patent publication US10835493B2, “Platelet-like proteo-microparticles and method of using such in drug delivery” (Academia Sinica, priority 2015, dated 2020).

Assays:
[1] = test system: HO-1 expression in SVECs; assay: CoPP-induced HO-1 expression in SVECs (western blotting); assay type: cell-based, murine; conditions: 4 hours exposure then overnight, compared to β-actin
Procedure: (§1) FIGS. 10A-10C show in vitro analysis of CoPP-induced expression of HO-1. FIG. 10A is a schematic diagram showing the relationship between CoPP, HO-1 and bilirubin. […] The cells were then placed back in a 37° C. incubator overnight before subjecting to western blotting (FIG. 10B). FIG. 10C presents the specific activity of the induced HO-1 in every treated sample, in catalyzing heme into bilirubin (n=6). NT; not treated, CoPP; free CoPP, Lipo+CoPP; liposome-encapsulated CoPP, PLP+CoPP; PLP-encapsulated CoPP. *, P<0.05, ***, P<0.001.
(§2) Samples were separated on 4-12% SDS-polyacrylamide gels (BioRad, US). After transfer to PVDF membrane, primary and secondary antibodies were applied, and the signals were detected with ECL-plus reagent. Primary antibodies against human GPIIb (GTX113758), human CD42c (GTX113355) and β-actin (GTX109639) were purchased from GeneTex (US). The anti-human CD62P (sc-19672) were from Santa Cruz (US). The rabbit polyclonal anti-HO-1 antibodies were made in-house according to Lin et al. ((2013), Arterioscler Thromb Vase Biol 33:785-794).
(§3) The capability of PLP−CoPP to induce HO-1 expression was first investigated in SVECs, RAW264.7 cells and MΦ (FIG. 10B). […] In addition, the enzyme activity of HO-1 in each corresponded to the expression level of enzyme in each of the CoPP-treated samples.

[2] = test system: HO-1 expression in RAW264.7 cells; assay: CoPP-induced HO-1 expression in RAW264.7 cells (western blotting); assay type: cell-based, murine; conditions: 4 hours exposure then overnight
Procedure: as §1, §2, §3

[3] = test system: murine model of I/R injury; assay: Infarct area in murine model of myocardial I/R injury (histology); assay type: in vivo, mouse; conditions: 5 mg/Kg i.v. at 72 hours of reperfusion then every 5 days; vs I/R+saline
Description: (§4) FIGS. 6A-6D show therapeutic analysis of PLP−CoPP in a murine model of myocardial I/R injury. […] Subsequent injections were made every 5 days until day 28, at which point the mice were sacrificed. Subsequently, the heart tissues of the mice were sectioned and stained with Masson's trichrome (FIG. 6B). NT; not treated, CoPP; free CoPP, Lipo+CoPP; liposome-encapsulated CoPP, PLP+CoPP; PLP-encapsulated CoPP. Scale bar; 1 mm for the whole section and 100 μm for the higher magnified images.
Surgery for myocardial ischemia-reperfusion (I/R) was performed according to the protocol published in Ojha et al. ((2008), Am J Physiol Heart Circ Physiol 294:H2435-H2443). Briefly, the mice were ventilated on room air-isoflurane at an appropriate rate and tidal volume. The heart was accessed via left thoracotomy, in which the left lung was retracted to allow entrance to the pericardium. Subsequently, the left atrium was elevated to expose the left anterior descending coronary artery (LAD), and was isolated using a 7-0 silk suture on a taper needle. The suture was tightened over a piece of polyethylene-10 tubing to provide for reversible ischemia via the occlusion of the coronary artery. Ischemia was allowed to continue for 45 minutes after occlusion. After 45 minutes, the suture was released to allow for reperfusion of the injured myocardium. […]

[4] = test system: I/R injured hearts; assay: PCR of HO-1 and pro-inflammatory genes in I/R injured hearts; assay type: in vivo, mouse; conditions: i.v. at 72 hours of reperfusion
Description: as §4
Total RNA was isolated from a whole heart using TRI Reagent (1 mL/whole heart). Subsequently, 1 μg of RNA was transcribed info cDNA using a random primer mixer (ProtoScript M-MuLV First Strand cDNA synthesis kit, New England BioLabs) and amplified during 35 cycles by PCR, utilizing specific primers (Table 1). The reactants were cycled at 95° C. for 1 min, 58° C. for 1 min, and 72° C. for 1.5 min to enable denaturation, annealing, and extension, respectively. PCR products were then separated on 1% (w/v) agarose gel at 60 V for 1 hour in TBE buffer (80 mM Tris base, 80 mM boric acid, and 2 mM EDTA, pH 8). The gels were stained with Health View Nucleic Acid Stain (Genomics, Taipei, Taiwan) for 30 minutes and then visualized under UV light.

[5] = test system: murine model of non-reperfused MI; assay: Echocardiographic assessment of cardiac function in murine model of MI; assay type: in vivo, mouse; conditions: 28 days post MI
Procedure: FIGS. 7A-7D show echocardiographic assessments of cardiac function and blood chemistry analysis of a murine model of MI injury after PLP−CoPP treatments. […] Treatments were then given every 5 days until day 28, at which point the cardiac function of the mice was assessed by echocardiography (n=8) (FIG. 7B); LVEF, left ventricular ejection fraction; FS, fraction shortening; LVEDV, left ventricular end-diastolic volume; LVESV, left ventricular end-systolic volume; IVSd, interventricular septal thickness at diastole; IVSs, interventricular septal thickness at systole. The blood of the mice was analyzed for biomarkers to assess liver function (FIG. 7C), renal function (FIG. 7D), and cardiac function (FIG. 7E); AST, aspartate aminotransferase; ALT, alanine aminotransferase; TBIL, total bilirubin; BUN, blood urea nitrogen; CRE, creatinine; CKMB, creatine kinase MB, *, P<0.05, ***, P<0.001. […]
The cardiac function in murine models of both I/R and MI was assessed by using a 30-MHz probe (Vevo770; Visual Sonics, Toronto, ON, Canada), following the methods published in Chen et al. ((2015), Stem Cells Trans Med 4:269-275). […] The left ventricular end-diastolic diameter (LVEDD) and end-systolic diameter (LVESD) were measured perpendicular to the long axis of the ventricle at the location of the papillary muscle insertion site. […]

[6] = test system: murine model of MI; assay: Blood chemistry (serum) analysis in murine model of MI; assay type: in vivo, mouse; conditions: end of 28-day treatment
Procedure: FIGS. 7A-7D show echocardiographic assessments of cardiac function and blood chemistry analysis of a murine model of MI injury after PLP−CoPP treatments. […] Treatments were then given every 5 days until day 28, at which point the cardiac function of the mice was assessed by echocardiography (n=8) (FIG. 7B); LVEF, left ventricular ejection fraction; FS, fraction shortening; LVEDV, left ventricular end-diastolic volume; LVESV, left ventricular end-systolic volume; IVSd, interventricular septal thickness at diastole; IVSs, interventricular septal thickness at systole. The blood of the mice was analyzed for biomarkers to assess liver function (FIG. 7C), renal function (FIG. 7D), and cardiac function (FIG. 7E); AST, aspartate aminotransferase; ALT, alanine aminotransferase; TBIL, total bilirubin; BUN, blood urea nitrogen; CRE, creatinine; CKMB, creatine kinase MB, *, P<0.05, ***, P<0.001.
All blood tests were performed by independent staff at the Taiwan Mouse Clinic, Academia Sinica, Taiwan. Male, BALB/c mice, approximately 56 weeks old, were used for all analyses (n=5 per group).
Levels of aspartate transaminase (AST), alanine transaminase (ALT), and total bilirubin in the serum were the biomarkers used to evaluate the hepatotoxicity of CoPP (FIG. 7C). […] Similar results were also seen in the measured serum level of blood urine nitrogen (BUN) and creatinine (CRE), which are biomarkers for renal toxicity (FIG. 7D).

C=CC1=C(C)c2cc3[n-]c(cc4nc(cc5[n-]c(cc1n2)c(C)c5CCC(=O)[O-])C(CCC(=O)[O-])=C4C)c(C)c3C=C.[Co+2].[H+].[H+] [CoPP, cobalt protoporphyrin]
HO-1 expression [1]: induction of some expression
HO-1 expression [2]: induced strong HO-1 expression
infarct area of the heart [3]: significant reduction
pro-inflammatory genes TNFα, MCP-1, IL6 and IL1β in the hearts [4]: downregulated
expression of the HO-1 gene (HMXO1) in the hearts ([4]; vs saline and Lipo−CoPP): upregulated
left ventricular ejection fraction (LVEF, %) ([5]; 5 mg/Kg i.v. from 3 days post-infarction every 5 days): No significant difference
LVEDV and LVESV [5]: significantly better than the other treatment groups
serum ALT [6]: significantly higher level
serum BUN and CRE [6]: significantly higher than the other treatment groups
serum CKMB [6]: significantly lower CKMB levels
